This is an account of results in US20180017584A1, “ADDITIVE CHANNELS” (Emulate Inc., priority 2016, published 2018).

One data set concerns p-selectin on platelets. Put plainly: Quality control of platelet activation by p-selectin expression. Type of data set: cell-based, human. Particulars: control blood upon activation by ADP. The procedure: (§1) To test for a thrombic event, blood was collected from 4 donors, the as blood alone or blood treated with hu5C8 alone (240 μg/mL), sCD40L (10 ng/ml) alone or with combined hu5C8/sCD40L was incubated for 20 minutes at room temperature. Each sample was further incubated for 5 minutes with fluorescent labels for platelets and fibrinogen. As a standard quality control, the control blood was tested for platelet activation using p-selection expression. We confirmed that platelets in control blood were not activated but upon activation by ADP, over 90% of platelet was positive for p-selectin.

Data set [1] concerns platelets in human whole blood perfused over HUVEC endothelium. Put plainly: Vessel-On-Chip blood perfusion, platelet coverage / aggregation by fluorescence imaging (CD41 label). Type of data set: cell-based. The note with it: for platelet coverage / platelet aggregate formation on the endothelium: vs blood alone, TNF-α 50 ng/ml 6 h, sCollagen 10 μg/ml, hu5C8 240 μg/ml + sCD40L 10 ng/ml. The procedure:
(§2) Experiments with Blood: Blood Samples And Endothelium: Citrated human blood (Research Blood Components, Cambridge, Mass.) was used within 4 hours of a blood draw in order to minimize pre-analytical effects on platelet function. Before every experiment, each one of the endothelialized channels (i.e. microchannels having an endothelial cell layer) was inspected via light microscopy, Samples showing any sign of discontinuity in the endothelium were discarded.
(§3) Blood Pre-treatment and Perfusion: Formation of IC (preformed IC): Hu5C8, IgG2σ (control) (both provided by Janssen or provided as described herein) For studies with preformed IC, Hu5C8 or IgG2σ as an isotype control were combined with sCD40L (Tonbo Biosciences, San Diego, Calif.) in PBS, in a ratio of I molecule of sCD40L to 3000 molecules of antibody. After 20 minutes incubation at room temperature, the solution was diluted in a blood sample to reach the final concentration of 240 μg/ml (Hu5C8) and 10 ng/ml (sCD40L).
Platelets: Platelets were labeled with human CD41-PE antibody (10 μL/ml. Invitrogen) directly added to the blood and incubated at room temperature for 5 minutes.
Anticoagulant Drug: As an exemplary standard antiplatelet (anticoagulant) drug, Eptifibatide was used as described herein. Eptifibatide has a well-known mechanism of action, such that a bolus of 180 mcg/Kg is frequently used to treat human patients.^54 We estimated that a concentration of 2.4 μM (about 2 μg/ml) is a clinical relevant concentration. As described herein for experiments including Eptifibatide, 2 μg/ml of Eptifibatide were incubated with blood samples for 15 minutes at room temperature before adding sCollagen or before flowing through TNF-inflamed biomimetic vessel.
(§4) Adding Blood to a Vessel-On-Chip And Flow Conditions: A medical grade plastic reservoir was mounted on the chip, then 800 μl of the blood sample was pipetted into the reservoir. The chip was perfused with the blood by withdrawing it at a rate of 60 μl/minute using a syringe pump. The citrated blood was re-calcified 2 minutes after the beginning of each experiment by adding 100 μl/ml of a solution containing 100 mM calcium chloride and 75 mM magnesium chloride to the blood to permit calcium- and magnesium-dependent platelet function and coagulation.
(§5) Staining of Endothelial Cells: Samples were washed twice in cell culture medium and then fixed in acetone/methanol 1:1 at −20° C., for 10 minutes. Each sample was then washed three times in PBS and incubated in blocking solution consisting of PBS and 10% normal donkey serum (Abcam) for one hour. After blocking, samples were washed in PBS twice and then incubated with anti VE-Cadherin monoclonal antibody (Abeam) diluted 1:100 in blocking solution at 4° C. overnight. […] Fluorescence Image analysis: Chips perfused with blood samples were immediately imaged via fluorescence microscopy (Olympus 1X83, 10× objective UPLFLN10X2, Circa-Flash4.0 CMOS Camera). […] Image processing and quantification was performed with an automatic macro compiled in […] and numerical values corresponding to platelet coverage or fibrin florescence were collected and statistically analyzed in Graphpad Prism V7.
Platelet Coverage: A percentage of signal coverage (or Platelet coverage) was computed from the binary image as the ratio of bright pixels to the total number of pixels in the image, Image processing and quantification was performed with an automatic macro compiled in ImageJ in order to ensure unbiased signal measurements. […]

The subject of data set [2] is fibrin deposition from human whole blood on HUVEC endothelium. Put plainly: Vessel-On-Chip blood perfusion, fibrin deposition by fluorescent fibrinogen imaging. Type of data set: cell-based. Particulars: for fibrin deposition / fibrin signal intensity on the endothelium: vs blood alone, TNF-α 50 ng/ml 6 h, sCollagen 10 μg/ml, hu5C8 240 μg/ml + sCD40L 10 ng/ml. The procedure:
as §2, §4
Visualizing Fibrin Deposition: When analyzing the formation of fibrin, 10 μg/ml of fluorescently labeled fibrinogen (Alexa 488, Invitrogen) was also added to the blood. While fluorescent fibrinogen was barely detected as a diffused fluorescence, fibrin deposition on inflamed cells and sparse clots was easily distinguished since fibrin formed filamentous structures produce a signal intensity that is clearly observed above a background threshold.
as §5, with “hour.” for “hour. After blocking, samples were washed in PBS twice and then incubated with anti VE-Cadherin monoclonal antibody (Abeam) diluted 1:100 in blocking solution at 4° C. overnight.”
Platelet Coverage: A percentage of signal coverage (or Platelet coverage) was computed from the binary image as the ratio of bright pixels to the total number of pixels in the image, Image processing and quantification was performed with an automatic macro compiled in ImageJ in order to ensure unbiased signal measurements. Numerical values corresponding to platelet coverage or fibrin fluorescence (signal intensity) were collected and statistically analyzed in Graphpad Prism V7.

Data set [3] relates to thrombin anti-thrombin complex (TAT). Put plainly: Thrombin-Anti Thrombin (TAT) measurement via ELISA in chip effluent. Type of data set: cell-based, human. Particulars: for levels of TAT in outflow: vs blood alone, TNF-α 50 ng/ml 6 h endothelial pre-treatment, sCollagen in blood, hu5C8 240 μg/ml + sCD40L 10 ng/ml. The procedure:
Thrombin-Anti Thrombin (TAT) measurement via ELISA: Thrombin Anti-Thrombin (TAT) levels were analyzed in plasma from blood flowing out of the chip device by removing a sample from the outflow port. Thus TAT levels were evaluated in sample effluents collected from the outflow port of the chip using the Human TAT ELISA Kit (Siemens Healthineers) according to the user manual.
Blood sampled from the Vessel-On-Chip outflow port was analyzed for thrombin anti-thrombin complex (TAT), a factor released upon activation of the coagulation cascade and one of the biomarkers associated with thrombotic events occurring in patients affected with deep vein thrombosis (DVT) or SLE^45,46. TAT is an accepted clinical biomarker for procoagulation^48,49. An enzyme-linked immunosorbent assay (ELISA) was used to quantify the thrombin anti-thrombin complex (TAT).
Background: An ELISA detects its analyte on a solid surface through an enzyme-linked reagent.

A further data set deals with ICAM1. Put plainly: ICAM1 immunostaining of endothelium on chip. Type of data set: cell-based, human. The note with it: TNF-α stimulated endothelium. The procedure: ICAM1 is shown with examples identified by white arrows. One example of a DAPI stained nuclei is shown inside of a white circle.
TNF-alpha Stimulation: In some experiment endothelial cells were stimulate with 50 ng/ml of TNF (Sigma) for 6 hours in order to induce vascular inflammation before blood perfusion.

Data set [4] relates to human whole blood perfused over HUVEC endothelium. Put plainly: Thrombosis on-chip, combined endpoints (platelet coverage, fibrin deposition, TAT). Type of data set: cell-based. Particulars: hu5C8 alone 240 μg/mL; sCD40L alone 10 ng/ml; 4 donors; 60 μl/minute. The procedure:
as §3, §1
Re-calcified blood samples were then perfused through the biomimetic vessel with untreated endothelium at a flow rate of 60 ul/minute for about 10 minutes while sodium citrate was re-introduced through the anticoagulant port. […]

A further data set deals with lupus nephritis patients. Particulars: lupus nephritis clinical study; cited from earlier work.
Where [5] appears, read: Eptifibatide 2 ug/ml, endothelium inflamed with TNF-α, n=4.

Positions of bridges follow the written chain, without caps; N, C: chain ends. Non-standard residues stand in square brackets, D forms with d. Residues, ends and D or L forms follow the SMILES beside them. hArg = N=C(N)NCCCC[C@H](N)C(=O)O; Mpa = O=C(O)CCS

For `Nc1ncnc2c1ncn2[C@@H]1O[C@H](COP(=O)(O)OP(=O)(O)O)[C@@H](O)[C@H]1O` [ADP], the “platelets positive for p-selectin” value in the data set with p-selectin on platelets is “over 90%”.

Take `N=C(N)NCCCC[C@@H]1NC(=O)CCSSC[C@@H](C(N)=O)NC(=O)[C@@H]2CCCN2C(=O)[C@H](Cc2c[nH]c3ccccc23)NC(=O)[C@H](CC(=O)O)NC(=O)CNC1=O` [Eptifibatide] ([Mpa][hArg]GDWPC-NH2; disulfide 1-7): in data set [1] (setting [5]), the “inhibition of platelet aggregation” value was “significantly inhibited”. For the same molecule, in data set [1] (Eptifibatide 2 ug/ml, following treatment with sCollagen, n=4), the “inhibitory effect on platelet aggregation and fibrin clot formation” value is “comparatively modest”. Moreover, the “platelet adhesion (image analysis of multiple experiments)” value in data set [1] (Eptifibatide 2 ug/ml, n=4) is on record as “completely inhibited”. For the same molecule, the “inhibition of fibrin clot formation” value in data set [2] (setting [5]) is “significantly inhibited”. Also, the “fibrin signal remaining under Eptifibatide” value in data set [2] (Eptifibatide 2 ug/ml, samples treated with TNF-α) is “significant amount of fibrin signal was still detectable”. Moreover, the “effect on TAT increment associated with TNF-α-induced inflammation” value in data set [3] (Eptifibatide 2 ug/ml, TNF-α pre-treated endothelium) is “did not inhibit”. Further, the “effect on TAT increment due to sCollagen treatment” value in data set [3] (Eptifibatide 2 ug/ml, sCollagen-treated blood) is “entirely suppressed”.

With TNF-α, the “platelet coverage / platelet aggregate formation on the endothelium” value in data set [1] was “increased”. For the same molecule, the “fibrin deposition / fibrin signal intensity on the endothelium” value in data set [2] is on record as “increased”. Besides, in data set [3], the “levels of TAT in outflow” value is “significantly increased”. Also, the “expression of ICAM1 in the endothelium compared to the control” value with ICAM1 was “increased expression”.

Regarding “hu5C8: humanized monoclonal IgG1 antibody against CD40L (anti-CD154)”, the “treatment-related effects compared to untreated blood” value in data set [4] is listed as “no significant treatment-related effects”. Also, in the data set with lupus nephritis patients, the “incidence of thromboembolitic events” value is 2/18.

As to “sCollagen: soluble collagen (Soluble Calf Skin, Type I), a standard platelet activator”, the “platelet coverage / platelet aggregate formation on the endothelium” value in data set [1] was “increased”. The “fibrin deposition / fibrin signal intensity on the endothelium” value in data set [2] is listed as “increased”. In addition, the “levels of TAT in outflow” value in data set [3] is listed as “minimally increased”.
